Measured values from patent EP0857721A1, “ACRIDONE COMPOUNDS” (Eisai Co., Ltd., priority 1995, dated 1997).
Read-outs that look alike come from different tables or passages of the source.

Columns and labels:
RBL-2H3 cells = assay: Inhibition of serotonin liberation from IgE-sensitized, antigen-stimulated RBL-2H3 cells ([3H]-serotonin); type: cell-based; conditions: Rattus norvegicus; IgE-sensitized RBL-2H3 cells stimulated with specific antigen; [3H]-labeled serotonin
Source text: Under the action of an antigen specific to the IgE antibody, RBL-2H3 cells, i.e., a cell line originating in rat cells, not only liberate histamine and serotonin but also produce and liberate cytokines such as TNF" serving as an inflammatory mediator and prostaglandins. In this experimental system, the effects of the compounds of the present invention of inhibiting the liberation of various mediators were examined by using serotonin as an indication.
The cells were labeled with [^3H]-labeled serotonin and, at the same time, sensitized with the IgE antibody. Next, these cells were incubated in the presence of the acridone compounds according to the present invention and then stimulated with the specific antigen. Then the serotonin liberation inhibitory activity of each acridone compound was calculated from the amount of the [^3H]-labeled serotonin thus liberated into the medium due to the above-mentioned stimulation and the amount of the [^3H]-labeled serotonin liberated into the medium by the same experimental procedure as the one described above but adding no acridone compound of the present invention.

human basophils = assay: Inhibition of mediator (histamine, peptide leukotriene) liberation from human basophils stimulated with tick antigen; type: cell-based; conditions: leukocyte fraction containing basophils, enzyme immunoassay
Method: To 20 ml of heparinized blood was added 6 ml of 6% dextran (for separating leukocytes, high molecular weight). The obtained mixture was thoroughly stirred and then allowed to stand at 37°C for 30 minutes to thereby sediment erythrocytes. The upper layer was taken out and phosphate-buffered saline was added thereto. The obtained mixture was centrifuged at 185 G for eight minutes to thereby give a crude leukocyte fraction. These cells (leukocyte fraction) were subjected to hypotonic hemolysis and then suspended in D-PBS(+) containing 0.1% of BSA. The cell suspension thus prepared was used in the subsequent experiment as the leukocyte fraction containing basophils.
To 0.4 ml of this cell suspension preliminarily heated at 37°C for 5 minutes was added 0.05 ml of a solution containing each acridone compound of the present invention. The obtained mixture was then allowed to stand at 37°C for 15 minutes so that the cells were pre-treated. Next, 0.05 ml of a tick antigen solution was added thereto to thereby induce an antigen-antibody reaction. Ten minutes thereafter, the antigen-antibody reaction was ceased by ice-cooling. After ceasing the reaction, the mixture was centrifuged at 185 G for ten minutes. The supernatant was taken out and the contents of histamine and a peptide leukotriene therein were determined by using each an enzyme immunoassay kit. Based on the data thus obtained, the activities of the compound of inhibiting the liberation of histamine and peptide leukotriene were determined.

[1] = target: T1, tyrosine kinase of 72 kDa (Rattus norvegicus, UniProt Q64725); assay: Inhibition of phosphorylation (activation) of the 72 kDa tyrosine kinase induced by phosphorylated TAM peptide of IgE receptor γ-chain, western blotting; type: biochemical; conditions: Compd. concentration 10 μM; RBL-2H3 lysate or cytosol, TAM peptide 10 µM, ATP 50 µM; tyrosine kinase phosphorylation inhibitory ratio; read-out: Inhibitory potency
T1 construct: the tyrosine kinase of 72 kDa contained in the lysate or cytosol thus prepared; endogenous in cells; host or cells: RBL-2H3 cells (NP-40 lysate or cytosol fraction)
T1 sequence (Q64725 whole entry): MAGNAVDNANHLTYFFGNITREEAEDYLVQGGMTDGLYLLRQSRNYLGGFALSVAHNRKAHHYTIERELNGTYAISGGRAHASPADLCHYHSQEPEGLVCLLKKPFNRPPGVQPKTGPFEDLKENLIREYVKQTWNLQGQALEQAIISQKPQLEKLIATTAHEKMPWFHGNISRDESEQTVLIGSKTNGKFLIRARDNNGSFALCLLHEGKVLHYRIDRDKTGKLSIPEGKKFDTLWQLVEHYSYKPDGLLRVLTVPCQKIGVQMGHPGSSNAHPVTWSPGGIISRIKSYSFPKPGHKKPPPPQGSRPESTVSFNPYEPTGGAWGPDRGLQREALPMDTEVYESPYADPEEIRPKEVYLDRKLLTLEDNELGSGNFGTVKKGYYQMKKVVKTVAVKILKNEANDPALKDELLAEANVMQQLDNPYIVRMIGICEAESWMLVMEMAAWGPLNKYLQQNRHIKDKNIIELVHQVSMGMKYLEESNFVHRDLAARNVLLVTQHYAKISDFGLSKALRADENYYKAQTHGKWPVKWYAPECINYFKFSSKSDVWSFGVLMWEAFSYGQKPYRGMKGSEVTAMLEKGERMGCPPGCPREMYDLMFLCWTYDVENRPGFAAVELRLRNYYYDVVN
Source text: In this experiment, use was made of RBL-2H3 cells, i.e., a cell line which is generally employed in the studies on the informational transmission system in IgE receptors of mast cells or basophils and a peptide in the tyrosine activation motif (TAM) region containing phosphorylated tyrosine in a human IgE receptor γ chain synthesized by Peputido Kenkyusho K.K..
In this experiment, use was made of a lysate which had been obtained by solubilizing 1 × 10^7 to 5 × 10^7 cells with the use of a solution containing various proteases and NP-40 employed as a solubilizer at a concentration of 1% and a supernatant (as the cytosol fraction of the cells) which had been obtained by disrupting the cells with Down's homogenizer and centrifuging the obtained mixture at 50,000 rpm for 1 hour. The concentrations of the lysate and cytosol of the cells were each adjusted to 1 mg protein/ml with the use of an isotonic buffer. […]
The extent of the activation of this tyrosine kinase was determined by confirming the extent of the phosphorylation of the tyrosine moiety in the tyrosine kinase per se by western blotting with the use of an anti-tyrosine phosphorylation antibody and then numerically expressing the obtained data with an image analyzer. Based on the extent of the phosphorylation thus obtained, the tyrosine kinase phosphorylation inhibitory ratio of the compound 101 was determined.

[2] = histamine, read-out: IC50 (µM) in mediator liberation from human basophils histamine
[3] = peptide leukotriene, read-out: IC50 (µM) in mediator liberation from human basophils leukotriene

IC50 (human basophils; [2]) [µM] | IC50 (human basophils; [3]) [µM] | inhibition at 10 µM [1] [%] | SMILES | IC50 (RBL-2H3 cells) [µM]
30 | 30 to 100 |  | Cc1ccc2c(=O)c3c(CC(=O)O)cccc3n(CCCNCc3ccccc3)c2c1C [Compound 1] | 3
10 to 30 | 3 to 10 |  | Cc1ccc2c(=O)c3c(CC(=O)O)cccc3n(CCCNCc3ccc(Cl)cc3Cl)c2c1C [Compound 13] | 0.2
10 | 3 |  | COc1c(CNCCCn2c3cccc(CC(=O)O)c3c(=O)c3ccc(C)c(C)c32)ccc(Cl)c1Cl [Compound 28] | 1
10 | 3 |  | Cc1ccc2c(=O)c3ccccc3n(CCCNCc3ccccc3O)c2c1C [Compound 39] | 1
 | 10 to 30 | 70 | Cc1ccc2c(=O)c3c(CC(=O)O)cccc3n(CCCN(C)Cc3ccccc3)c2c1C [Compound 101] | 3
 |  |  | Cc1ccc2c(=O)c3c(CC(=O)O)cccc3n(CCCNCc3cccc(Cl)c3)c2c1C [Compound 106] | 10
 |  |  | Cc1ccc2c(=O)c3c(CC(=O)O)cccc3n(CCCNCc3ccccc3F)c2c1C [Compound 107] | 6
 |  |  | Cc1ccc2c(=O)c3c(CC(=O)O)cccc3n(CCCNCc3cccc(F)c3)c2c1C [Compound 108] | 5
 |  |  | Cc1ccc2c(=O)c3c(CC(=O)O)cccc3n(CCCN(CCO)Cc3ccccc3)c2c1C [Compound 109] | 3
 |  |  | Cc1ccc2c(=O)c3c(CC(=O)O)cccc3n(CCCN(C)CCc3ccccc3)c2c1C [Compound 113] | 8
 |  |  | Cc1ccc2c(=O)c3c(CC(=O)O)cccc3n(CCCNCc3ccccc3C(F)(F)F)c2c1C [Compound 116] | 3
 |  |  | Cc1ccc2c(=O)c3ccccc3n(Cc3ccccc3CN)c2c1C [Compound 117] | 10
 |  |  | Cc1ccc2c(=O)c3ccccc3n(Cc3ccc(CN)cc3)c2c1C [Compound 119] | 4
 |  |  | Cc1ccc2c(=O)c3ccccc3n(Cc3cccc(CN)n3)c2c1C [Compound 120] | 8
 |  |  | Cc1ccc2c(=O)c3ccccc3n(Cc3ccc(CNCc4ccco4)cc3)c2c1C [Compound 125] | 10
 |  |  | Cc1ccc2c(=O)c3ccccc3n(Cc3ccc(CNCc4ncc[nH]4)cc3)c2c1C [Compound 126] | 10
 |  |  | Cc1ccc2c(=O)c3ccccc3n(Cc3ccccc3CNCc3ncc[nH]3)c2c1C [Compound 127] | 5
 |  |  | Cc1ccc2c(=O)c3ccccc3n(Cc3cccc(CNCc4ccccc4)n3)c2c1C [Compound 128] | 1
 |  |  | Cc1ccc2c(=O)c3ccccc3n(CC=CCNCc3ccccc3)c2c1C [Compound 129] | 8
 |  |  | Cc1ccc2c(=S)c3ccccc3n(CCCN)c2c1C [Compound 130] | 10
 |  |  | Cc1ccc2c(=S)c3ccccc3n(CCCNCc3ccccc3)c2c1C [Compound 131] | 10
 |  |  | Cc1ccc2c(=O)c3ccccc3n(Cc3ccc(CNCc4ccccc4)o3)c2c1C [Compound 133] | 2
 | 10 to 30 |  | CNC(=O)Cc1cccc2c1c(=O)c1ccc(C)c(C)c1n2CCCN(C)Cc1ccccc1 [Compound 135] | 2
 |  |  | Cc1ccc2c(=O)c3c(CC(=O)N(C)C)cccc3n(CCCN(C)Cc3ccccc3)c2c1C [Compound 136] | 10
 |  |  | Cc1ccc2c(=O)c3c(C(C)C(=O)O)cccc3n(CCCN(C)Cc3ccccc3)c2c1C (stereo not shown) [Compound 140] | 4
30 to 100 | 3 to 10 |  | Cc1ccc2c(=O)c3c(C(C)C(=O)O)cccc3n(CCCNCc3ccccc3)c2c1C (stereo not shown) [Compound 141] | 1
 |  |  | Cc1ccc2c(=O)c3c(C(C)C(=O)O)cccc3n(CCCNCc3ccc(Cl)c(Cl)c3)c2c1C (stereo not shown) [Compound 142] | 1
30 | 10 |  | Cc1ccc2c(=O)c3c(C(C)C(=O)O)cccc3n(CCCNCc3ccc(Cl)cc3Cl)c2c1C (stereo not shown) [Compound 143] | 1
